In the case of `C/C(NCc1ccccc1)=C(\C#N)C(N)=S`, the melting point (commonly the temperature, or range, at which the solid turns liquid) lay within 157 to 159 °C.

`CCCc1c(C(=O)N(C)C)c2ccc(C(N)=O)cc2n1Cc1ccccc1Cl`: the melting point lay within 213 to 214 °C.

In turn, `CCCCCCCCCCCCCCOC(=O)CCC(=O)O` returned a melting point of 48 to 49 °C.

On to `CCOC(=O)c1cc(Cl)cnc1N`, for which the melting point was in the range of 120 to 122 °C.

`CCCCCCCCCCCCCCCCCCNC(=O)OCC(CNS(=O)(=O)CCCCl)NC(=O)OC(C)(C)C` (stereo not drawn) gave a melting point of 112 to 115 °C.

In turn, `COC(=O)C12COc3cc(C(F)(F)F)ccc3C1=NN(C(=O)Nc1ccc(C(F)(F)F)cn1)C2` (stereo not drawn) displayed a melting point of 194 to 195 °C.

`CCOC(=O)Cn1c(=O)n(Cc2ccc(Cl)c(Cl)c2)c(=O)c2ccccc21` had a melting point of 121 to 122 °C.

As to `COc1ccccc1CN[C@H]1CCCN(CC(=O)O)[C@H]1c1ccccc1` (relative stereo), the melting point amounted to 58 °C.

In turn, `O=C1CC(=O)OC2(O1)SC=CS2` showed a melting point of 59 to 60 °C.

`CCS(=O)(=O)Nc1cc(-c2ncnc(NOC)c2Cl)c(F)cc1C#N`: the melting point was in the range of 188 to 189 °C.

`CCN(CC)c1ccc2cc(-c3nc(-c4ccccc4)cs3)c(=O)oc2c1` gave a melting point of 127 to 130 °C.

In turn, `O=C(O)[C@@H]1Cc2ccccc2N1C(=O)CN1CCN(Cc2ccc(Cl)cc2)CC1` came in with a melting point of 219 to 221 °C.

Consider `CCCCCCC1CCC(C(=O)Nc2c(C(C)C)cccc2C(C)C)C(=O)O1` (stereo not drawn), for which the melting point was 113 to 115 °C.

The molecule `CS(=O)(=O)c1ccc(C(=O)N[C@H]2CC[C@H](CCN3CCC(c4cccc5c4CCO5)CC3)CC2)s1` yielded a melting point of 255 °C.

`CC1C(=O)Oc2c1cccc2S(=O)c1ccccc1Cl` (stereo not drawn) gave a melting point of 120 to 122 °C.

For `O=Cc1ccc(OCCC2Oc3ccccc3N(Cc3cccc(Cl)c3)C2=O)cc1` (stereo not drawn), the melting point was 130 to 131 °C.

On to `CCOC(=O)c1nc2cc(Br)c(Br)cc2[nH]c1=O`, for which the melting point is 235 to 236 °C.

Regarding `O=c1c(-c2cccc(Cl)c2)coc2c(O)c(O)ccc12`, the melting point was 258 °C.

Regarding `OCC1(CO)COC2(CCCCC2)N1`, the melting point is 117 to 119 °C.

Molecule `CC(Cc1ccc(OC(C)C)cc1)NCC(O)c1cccc(Cl)c1` (stereo not drawn) yielded a melting point of 58 to 61 °C.

For the molecule `C[C@@H](CNC(=O)COC(=O)c1cc(S(N)(=O)=O)c(Cl)cc1NCc1ccco1)O[N+](=O)[O-]`, the melting point lay in the range of 125 to 138 °C.

Take `CCCCCCCCNC(=O)/C=C\SC(=O)c1cc(Cl)cc(Cl)c1`: the melting point was in the range of 99 to 102 °C.

Consider `NC(=NCC(F)(F)F)Nc1ccnc(OCCCc2ccccn2)n1`, for which the melting point is 118 to 120 °C.

`Cc1nc2cccnc2c(O)c1C(=O)c1ccccc1` registered a melting point above 260 °C.

Molecule `CCc1oc(-c2ccc(C(F)(F)F)cc2)cc1CCC(=O)Nc1cccc(CSCC(=O)O)c1` showed a melting point of 139 to 141 °C.

Regarding `COc1ccc(-c2ccccn2)c(S(=O)c2nc3cc(OC)c(OC)cc3[nH]2)c1` (stereo not drawn), the melting point was in the range of 208 to 210 °C.

Take `Cc1nc(-c2ccccc2C(F)(F)F)c(CC(Cl)C(=O)O)o1` (stereo not drawn): the melting point is 158 to 159 °C.

In turn, `COC(=O)CC[C@H](NC(=O)c1ccc(NCCCc2c(NC(C)=O)nc(NC(C)=O)[nH]c2=O)cc1)C(=O)OC` returned a melting point of 135 to 142 °C.

Regarding `COCCCCOc1ccc(OCc2ccccc2)cc1`, the melting point lay within 60 to 61 °C.

In turn, `CN(C)c1cccc(C(=O)N2CCN(CCc3ccc(Cl)cc3)CC2)c1` had a melting point of 110 to 112 °C.

For `Fc1ccc(-c2cc3[nH]ccn3n2)cc1`, the melting point fell in the range of 225 to 227 °C.

With `Cc1ccc(C=NNC(=O)c2ccc(O)cc2)s1`, the melting point was 216 °C.

In turn, `CSc1ccccc1-c1[nH]c2cccc3c2c1CCNC3=O` had a melting point of 271 to 272 °C.

`Nc1ccc2sc(C=Cc3ccccc3)nc2c1` registered a melting point of 154 to 156 °C.

As for `CC(C)(C)OC(=O)N[C@H]1CNC1=O`, the melting point is 173 to 175 °C.

`COC(=N)N1CCC(c2nn(C)c3cc(F)ccc23)CC1` yielded a melting point of 132 to 135 °C.

Regarding `CCOC(=O)CC1CCc2ccc(COc3ccc(C#N)cc3)cc2C1` (stereo not drawn), the melting point was 51 to 52 °C.

`NS(=O)(=O)c1ccc(CCC(=O)O)cc1` returned a melting point of 97 to 99 °C.

Take `CCS(=O)(=O)N(c1cc(-c2nsc(C(F)(F)F)c2Cl)c(Cl)cc1Cl)S(=O)(=O)CC`: the melting point was 153 to 154 °C.

Consider `CCOC(=O)C1=C(NC(C)=O)C(=O)O[C@@H]1C`, for which the melting point was 119 to 122 °C.

In turn, `COc1ccccc1-n1c(=O)[nH]c2c(C(N)=O)nc(-c3cccc(C(N)=O)c3)nc21` had a melting point of 338 to 339 °C.

Turning to `COC(=O)c1ccc(N=Cc2cccc(Cl)c2)cn1`, the melting point lay within 139 to 142 °C.

`C/C(=C\c1ccc(C=O)cc1)c1ccc2c(c1)C(C)(C)CCO2` had a melting point of 102 to 104 °C.

In turn, `CS(=O)(=O)c1nccn1CC(=O)O` showed a melting point of 218 to 219 °C.

`COc1cc(C(=O)N2Cc3ccc(C(=O)NCc4ccccc4C(F)(F)F)n3Cc3ccccc32)ccc1-c1ccccc1C` displayed a melting point of 165 to 167 °C.

For `CCCCCCCCCCCCCCCCCC(=O)N1C(CCCCCCCCCCCCCCCCC)NC(=O)CC1C(=O)O` (stereo not drawn), the melting point was 107 to 111 °C.

In the case of `CCCCNC(C)=C1C(=O)OC(=O)C(C(C)=O)=C1O`, the melting point lay within 112 to 114 °C.

Turning to `Fc1ccc2sc(COc3cccc(CBr)c3)nc2c1`, the melting point fell in the range of 99 to 100 °C.

On to `CC(C)NCCn1c(-c2ccc(O)cc2)cc2c1CCCC2`, for which the melting point lay within 149 to 150 °C.

With `NC(=O)Cc1cccc(-c2csc(N=C(N)N)n2)n1`, the melting point was determined as 254 °C.

For the molecule `Cc1ccc([N+](=O)[O-])c2c1CCN2`, the melting point lay within 125 to 127 °C.

In turn, `Nc1ccc2c(c1)C(=O)N(CCO)CO2` yielded a melting point of 94 to 96 °C.

Regarding `COC(=O)COc1ccc(C(=O)CC2CCN(c3ccncc3)CC2)cc1`, the melting point fell in the range of 137 to 138 °C.

`COC(=O)c1c(F)cc(OCCNC(=O)C2Cc3ccccc3N2S(=O)(=O)c2ccc(-c3ccc(F)cc3Cl)cc2)cc1F` (stereo not drawn) gave a melting point of 68 to 74 °C.

The molecule `CCn1cc(C(=O)O)c(=O)c2cc(F)c(N3CCC(CN)C3)c(F)c21` (stereo not drawn) displayed a melting point of 219 to 221 °C.

`COc1cccc([C@@]23CCC[C@@H]2CN(C)CC3)c1` (relative stereo) registered a melting point of 40 to 43 °C.

`O=[N+]([O-])c1cn2c(n1)O[C@@H](COc1ccc(N3CCC(Nc4ccc(OC(F)(F)F)cc4)CC3)cc1)CC2` displayed a melting point of 189 to 190 °C.

In turn, `CCCCN(Cc1ccc(-c2ccccc2S(=O)(=O)NC(=O)c2ccccc2Cl)cc1)C(=O)Oc1ccccc1C(F)(F)F` yielded a melting point above 150 °C.

In the case of `CC(C)(C)OC(=O)N1CCCN(c2ccc(N)cc2C#N)CC1`, the melting point came out at 38 °C.

Consider `COc1cc2c(cc1O)C1Cc3c(Cl)cc(OC)c(OC(C)=O)c3CN1CC2` (single isomer, unassigned; (-)), for which the melting point was in the range of 172 to 173 °C.

`O=C(O)CN1C(=O)c2cccc3c(Sc4ccccc4)ccc(c23)C1=O` displayed a melting point of 250 to 253 °C.

Take `O=C(N[C@H](Cc1ccc(C(F)(F)F)cc1)[C@@H](O)c1ccc(F)cc1)c1ccc(F)c2ccccc12` (racemic): the melting point fell in the range of 210 to 211 °C.

Turning to `CNC(=O)N1N=C(c2ccc([N+](=O)[O-])cc2)c2cc(Cl)c(Cl)cc2CC1C` (stereo not drawn), the melting point lay within 221 to 223 °C.

Molecule `c1cc(-c2ccnc3nccn23)ccn1` showed a melting point of 244 to 245 °C.

`COc1ccccc1N1CCN(c2cc3nc(C(=O)O)c(=O)[nH]c3cc2[N+](=O)[O-])CC1` showed a melting point of 204 to 206 °C.

The molecule `CCC(=O)Nc1ccc2oc3c(c2c1)CCCC3` registered a melting point of 164 to 165 °C.

`Cc1cnc2n1-c1cc(Cl)c(Cl)cc1N=C(c1ccc(-n3c(C)nc4cnccc43)cc1)C2` showed a melting point of 243 to 246 °C.

`O=C(Cc1cccs1)Nc1cccc2nc(N[C@@H]3CCc4ccccc43)ccc12` came in with a melting point of 164 °C.

With `COC(=O)c1cccc(OC(=O)C(=O)Oc2cccc(C(=O)OC)c2)c1`, the melting point is 194 to 195 °C.

`COc1cc2c(cc1OC)CCCC(C(=O)N1CCN(Cc3cc(OC)c(OC)c(OC)c3)CC1COC(C)=O)=C2` (stereo not drawn) came in with a melting point of 135 to 139 °C.

Consider `Cc1sc(N)c(C(=O)c2ccsc2)c1C`, for which the melting point was 122 to 123 °C.

As for `CC(c1ncncc1Cl)C(O)(Cn1cncn1)c1ccc(F)cc1F` (stereo not drawn), the melting point was determined as 128 °C.

The molecule `CCOC(=O)c1cn(CCOC(C)=O)c2c(F)c(F)c(F)c(C)c2c1=O` showed a melting point of 192 to 193 °C.

Regarding `CCNc1cncc(C(=NCCc2ccccc2Cl)NC#N)c1`, the melting point stood at 168 °C.

Molecule `CCc1cc2c(o1)S(=O)(=O)NC2=O` gave a melting point of 133 °C.

As for `Cc1cn(C2CC(N=[N+]=[N-])C(C(O)S(C)(=O)=O)O2)c(=O)n(C(=O)c2ccccc2)c1=O` (stereo not drawn), the melting point is 86 to 88 °C.

The molecule `COc1ccc([N+](=O)[O-])cc1C=O` returned a melting point of 89 to 90 °C.

Molecule `CN(Cc1cc2c3c(c1)c(=O)c(C(=O)NCc1ccc(Cl)cc1)cn3CC(=O)N2C)C[C@@H](O)c1nccs1` returned a melting point of 125 to 130 °C.

`Cc1c(C)c(N2CCN(c3ccc(C(N)=O)cc3)CC2)c(C)c2c1OC(C)C2` (stereo not drawn) registered a melting point of 240 to 245 °C.

In turn, `Cc1cc(-c2ccccc2)c2ccccc2n1` came in with a melting point of 100 to 101 °C.

The molecule `CC(=O)Nc1nnc(C(F)(F)C(Cl)Cl)s1` returned a melting point of 182 to 184 °C.

`CCCCc1ccc(OC)c(-c2csc(NC(=O)c3ccc(C(=O)N4CCC(N5CCC[C@H]5CO)CC4)cc3)n2)c1` gave a melting point of 199 °C.

`O=c1[nH]c2ccc(S(=O)(=O)Nc3ccc(Cl)cc3Cl)cc2c(=O)o1` displayed a melting point of 215 °C.

`Cc1ccc(C2COc3c(C)c(C)c(Br)c(C)c32)cc1` (stereo not drawn) gave a melting point of 108 to 109 °C.

For `COC(=O)[C@H](Cc1ccc([N+](=O)[O-])cc1)NC(=O)C1(CCCCS(C)(=O)=O)CCCC1`, the melting point lay within 40 to 44 °C.

`CC(=O)CC(=O)NC1=Nc2ccc(Cl)cc2C(c2ccccc2)=NCC1` gave a melting point of 158 to 159 °C.

For `CCn1cc(CN(C(=O)C2CCCc3c(O)cccc32)c2ccc(OC)cc2)cn1` (stereo not drawn), the melting point lay in the range of 211 to 213 °C.

`O=C(CCc1ccc(CNCc2ccccc2)cc1)Nc1ccc(-c2ccc(Cl)cc2)cc1` yielded a melting point of 176 °C.

Source of the values: a melting point compilation (Tetko et al.; mined from patent text by program, amines drawn as free bases though some values may be those of a salt).
